Assay results from patent US20120094384A1, “USE OF COMPOUNDS FOR DIFFERENTIATION OF CELLS” (priority 2009, published 2012).

System: mouse embryonic stem cells (mESC's)
Experiment: Mouse embryonic stem cell differentiation assessed by GeneChip array (Affymetrix GeneChip Mouse Exon 1.0ST)
Format: cell-based
Conditions: 0.5 μM, 96 hours, spontaneously differentiating mESC's
Protocol: Undifferentiated mouse embryonic stem cells (mESC's) were seeded at a density of 1.3×10^6 cells on 6 cm uncoated bacterial grade dishes. Spontaneous differentiation was initiated by removal of LIF from the new incubation medium, which consisted of 2% serum KO DMEM+/−AO-1-530 (0.5 μM). AO-1-530 is the same compound used in Examples 1 and 2. There were three treated and three control replicates.
Cells were incubated on a shaking platform at 37° C. for 24 hours at which time the plating media was removed and fresh medium, or AO-1-530 treated medium added as appropriate. This was repeated at 48 hours and 72 hours.
The partially-differentiated cells or embryoid bodies (EB's) were harvested at 96 hours, washed with PBS, re-suspended in Trizol and stored at −80° C. awaiting RNA extraction. The cells were subsequently thawed and RNA extracted using a standard Trizol isolation procedure with an additional clean-up performed using a Qiagen RNeasy Mini kit and DNase digestion as per the manufacturer's instructions. cRNA was prepared from the tRNA, then hybridised to the Affymetrix GeneChip Mouse Exon 1.0ST array, washed, stained then scanned.
P-value cut-off: 0.05 P-value computation: Asymptotic Multiple testing correction: Benjamini-Hochberg

## CCCCCCCCCCc1ccc2c(=O)c(O)c(-c3cc(O)c(O)c(O)c3)oc2c1 [AO1530]
  Neurod1 and Fgf4 genes relative to the control cells: increase
  remaining 6 genes (Fgf10, Bry, Podxl, Map4k1, Pak1, Eomes) relative to the control cells: decreased
T-test, Benjamini-Hochberg
  number of genes with significantly altered (P<0.05) expression compared with the controls: 315 genes
[Control] (normalized) 0.17034023
  [Drug] (normalized) Pak1: −0.2141
[Control] (normalized) 0.32084307
  [Drug] (normalized) Bry: −0.4595
[Control] (normalized) 0.32956442
  [Drug] (normalized) Podxl: −0.3278
[Control] (normalized) 0.44043383
  [Drug] (normalized) Eomes: −0.5036
[Control] (normalized) 0.50325745
  [Drug] (normalized) Fgf10: −0.5713
[Control] (normalized) −0.1732769
  [Drug] (normalized) Map4k1: 0.1637
[Control] (normalized) −0.46519312
  [Drug] (normalized) Neurod1: 0.4739
[Control] (normalized) −0.48913416
  [Drug] (normalized) Fgf4: 0.3787
[Control](raw) 394.5062
  [Drug](raw) Fgf10: 187.7
[Control](raw) 420.62076
  [Drug](raw) Neurod1: 806
[Control](raw) 814.98
  [Drug](raw) Map4k1: 1029.3136
[Control](raw) 2057.381
  [Drug](raw) Eomes: 1071.638
[Control](raw) 2079.3152
  [Drug](raw) Fgf4: 3787.6875
[Control](raw) 2240.5337
  [Drug](raw) Pak1: 1717.2704
[Control](raw) 3411.1348
  [Drug](raw) Podxl: 2162.7986
[Control](raw) 8229.497
  [Drug](raw) Bry: 4804.9707
